Measured values reported in patent publication US7335674B2, “Benzothiazole-4,7-diones and benzoxazole-4,7-diones with substituents in position 5 or 6 and method for production thereof” (Societe de Conseils de Recherches et d'Applications …, priority 2003, dated 2008).
pIC50: −log10 of the molar value.

What was measured:
[1] = tested on: Mia-Paca2 (human pancreas cancer cells); test: Antiproliferative activity, WST1 colorimetric test, Mia-PaCa2; format: cell-based; details: MIA PaCa-2, Mia-Paca2, treated 96 hours, up to 10 μM, read-out: IC50 on the cell proliferation of the Mia-Paca2 lines
Method: (§1) iii) Characterization of the Antiproliferative Activity:
(§2) By way of example, the effect of a treatment on two human cell lines Mia-Paca2 and DU145 by the compounds of the examples described previously will be studied. The cell lines DU145 (human prostate cancer cells) and Mia-PaCa2 (human pancreas cancer cells) were acquired from the American Tissue Culture Collection (Rockville, Md., USA). The cells placed in 80 μl of Dulbecco's Modified Eagle's medium (Gibco-Brl, Cergy-Pontoise, France) completed with 10% foetal calf serum inactivated by heating (Gibco-Brl, Cergy-Pontoise, France), 50,000 units/l of penicillin and 50 mg/l of streptomycin (Gibco-Brl, 10378-057, Cergy-Pontoise, France), and 2 mM of glutamine (Gibco-Brl, Cergy-Pontoise, France) were seeded on a 96-well plate on day 0. The cells were treated on day 1 for 96 hours with increasing concentrations of each of the compounds to be tested up to 10 μM. At the end of this period, quantification of cell proliferation is evaluated by a colorimetric test based on the cleavage of the tetrazolium salt WST1 by the mitochondrial dehydrogenases in viable cells leading to the formation of formazan (Boehringer Mannheim, Meylan, France). These tests are carried out in duplicate with 8 determinations per concentration tested. For each compound to be tested, the values included in the linear part of the sigmoid were retained for a linear regression analysis and used to estimate the inhibitory concentration IC50. The products are solubilized in dimethylsulphoxide (DMSO) at 10^−2 M and finally used in culture with 0.1% DMSO.

[2] = tested on: DU145 (human prostate cancer cells); test: Antiproliferative activity, WST1 colorimetric test, DU145; format: cell-based; details: DU-145, treated 96 hours, up to 10 μM, read-out: IC50 on the cell proliferation of the DU-145 lines
Method: as §1, §2

SMILES | pIC50 [1] | pIC50 [2] | melting point [°C]
CN(C)CCNC1=CC(=O)c2sc(-c3c(F)cccc3Cl)nc2C1=O [Example 6, 2-(2-chloro-6-fluorophenyl)-5-{[2-(dimethylamino)ethyl]amino}-1,3-benzothiazole4,7-dione] | ≥ 5.00 | ≥ 5.00 | 
CN(C)CCNC1=CC(=O)c2nc(-c3c(F)cccc3Cl)sc2C1=O [Example 12, 2-(2-chloro-6fluorophenyl)-6-{[2-(dimethylamino)ethyl]amino}-1,3-benzothiazole-4,7-dione] | ≥ 5.00 | ≥ 5.00 | 
CN(C)CCNC1=CC(=O)c2nc(-c3cc(F)ccc3F)sc2C1=O [Example 14, 2-(2,5-difluorophenyl)-6-{[2-(dimethylamino)ethyl]amino}-1,3-benzothiazole-4,7-dione] | ≥ 5.00 | ≥ 5.00 | 
CN(C)CCNC1=CC(=O)c2oc(-c3cccc(Br)c3)nc2C1=O [Example 17, 2-(3-bromophenyl)-5-{[2-(dimethylamino)ethyl]amino}-1,3-benzoxazole-4,7-dione] | ≥ 5.00 | ≥ 5.00 | 187 to 188
CN(C)CCNC1=CC(=O)c2oc(-c3cc(F)cc(F)c3)nc2C1=O [Example 19, 2-(3,5-difluorophenyl)-5-{[2-(dimethylamino)ethyl]amino}-1,3-benzoxazole-4,7-dione] | ≥ 5.00 | ≥ 5.00 | 187 to 188
CN(C)CCNC1=CC(=O)c2oc(-c3cccc(F)c3F)nc2C1=O [Example 20, 2-(2,3-difluorophenyl)-5-{[2-(dimethylamino)ethyl]amino}-1,3-benzoxazole-4,7-dione] | ≥ 5.00 | ≥ 5.00 | 178 to 179
CN(C)CCNC1=CC(=O)c2oc(-c3cc(F)c(F)c(F)c3)nc2C1=O [Example 21, 5-{[2-(dimethylamino)ethyl]amino}-2-(3,4,5-trifluorophenyl)-1,3-benzoxazole4,7-dione] | ≥ 5.00 | ≥ 5.00 | 
CN(C)CCNC1=CC(=O)c2oc(Cc3ccccc3)nc2C1=O [Example 23, 2-benzyl-5-{[2-(dimethylamino)ethyl]amino}-1,3-benzoxazole-4,7-dione] | ≥ 5.00 | ≥ 5.00 | 135 to 136
O=C1C(NCCN2CCCC2)=CC(=O)c2oc(-c3cc(F)cc(F)c3)nc21 [Example 25, 2-(3,5-difluorophenyl)-5-[(2-pyrrolidin-1-ylethyl)amino]-1,3-benzoxazole-4,7-dione] | ≥ 5.00 | ≥ 5.00 | 182 to 183
O=C1C(NCCN2CCCC2)=CC(=O)c2oc(-c3cc(F)c(F)c(F)c3)nc21 [Example 26, 5-[(2-pyrrolidin-1-ylethyl)amino]-2-(3,4,5-trifluorophenyl)-1,3-benzoxazole-4,7-dione] | ≥ 5.00 | ≥ 5.00 | 193 to 194
CN(C)CCNC1=CC(=O)c2nc(-c3cc(F)ccc3F)oc2C1=O [Example 27, 2-(2,5-difluorophenyl)-6-{[2-(dimethylamino)ethyl]amino}-1,3-benzoxazole-4,7-dione] | ≥ 5.00 | ≥ 5.00 | 
CCc1ccc(-c2nc3c(o2)C(=O)C(NCCN2CCCC2)=CC3=O)cc1 [Example 54, 2-(4-ethylphenyl)-6-[(2-pyrrolidin-1-ylethyl)amino]-1,3-benzoxazole-4,7-dione] | ≥ 5.00 | ≥ 5.00 | 
CCCCCCc1nc2c(s1)C(=O)C(NCCN(C)C)=CC2=O [Example 60, 6-{[2-(dimethylamino)ethyl]amino}-2-hexyl-1,3-benzothiazole-4,7-dione] | ≥ 5.00 | ≥ 5.00 | 

More lines, now with the values ahead:

pIC50 [1] | pIC50 [2] | melting point [°C] | SMILES
≥ 5.00 | ≥ 5.00 |  | CN(C)CCNC1=CC(=O)c2sc(-c3c(F)cccc3F)nc2C1=O [Example 1, 2-(2,6-difluorophenyl)-5-{[2-(dimethylamino)ethyl]amino}-1,3-benzothiazole-4,7-dione]
≥ 5.00 | ≥ 5.00 |  | CN(C)CCNC1=CC(=O)c2sc(-c3cc(Cl)sc3Cl)nc2C1=O [Example 2, 2-(2,5-dichlorothien-3-yl)-5-{1-[2-(dimethylamino)ethyl]amino}-1,3-benzothiazole-4,7-dione]
≥ 5.00 | ≥ 5.00 |  | O=C1C(NCCN2CCCC2)=CC(=O)c2sc(-c3cc(Cl)sc3Cl)nc21 [Example 3, 2-(2,5-dichlorothien-3-yl)-5-[(2-pyrrolidin-1-ylethyl)amino]-1,3-benzothiazole-4,7-dione]
≥ 5.00 | ≥ 5.00 |  | CN(C)CCNC1=CC(=O)c2sc(-c3ccc(F)cc3)nc2C1=O [Example 4, 5-{[2-(dimethylamino)ethyl]amino}-2-(4-fluorophenyl)-1,3-benzothiazole4,7-dione]
≥ 5.00 | ≥ 5.00 |  | O=C1C(NCCN2CCCC2)=CC(=O)c2sc(-c3ccc(F)cc3)nc21 [Example 5, 2-(4-fluorophenyl)-5-[(2-pyrrolidin-1-ylethyl)amino]-1,3-benzothiazole-4,7-dione]
≥ 5.00 | ≥ 5.00 |  | O=C1C(NCCN2CCCC2)=CC(=O)c2sc(-c3c(F)cccc3Cl)nc21 [Example 7, 2-(2-chloro-6-fluorophenyl)-5-[(2-pyrrolidin-1-ylethyl)amino]-1,3-benzothiazole-4,7-dione]
≥ 5.00 | ≥ 5.00 | 246 to 247 | CN(C)CCNC1=CC(=O)c2nc(-c3ccc(F)cc3)sc2C1=O [Example 8, 6-{[2-(dimethylamino)ethyl]amino}-2-(4-fluorophenyl)-1,3-benzothiazole4,7-dione]
≥ 5.00 | ≥ 5.00 | 172 to 173 | CN(C)CCNC1=CC(=O)c2nc(-c3cccc4ccccc34)sc2C1=O [Example 9, 6-{[2-(dimethylamino)ethyl]amino}-2-(1-naphthyl)-1,3-benzothiazole-4,7-dione]
≥ 5.00 | ≥ 5.00 | 194 to 195 | CN(C)CCNC1=CC(=O)c2nc(-c3ccc(-c4ccccc4)cc3)sc2C1=O [Example 10, 2-(1,1′-biphenyl-4-yl)-6-{[2-(dimethylamino)ethyl]amino}-1,3-benzothiazole-4,7-dione]
≥ 5.00 | ≥ 5.00 | 126 to 127 | CCCCc1ccc(-c2nc3c(s2)C(=O)C(NCCN(C)C)=CC3=O)cc1 [Example 11, 2-(4-butylphenyl)-6-{[2-(dimethylamino)ethyl]amino}-1,3-benzothiazole-4,7-dione]
≥ 5.00 | ≥ 5.00 | 167 to 168 | CN(C)CCNC1=CC(=O)c2nc(-c3ccc4ccccc4c3)sc2C1=O [Example 13, 6-{[2-(dimethylamino)ethyl]amino}-2-(2-naphthyl)-1,3-benzothiazole-4,7-dione]
≥ 5.00 | ≥ 5.00 | 181 to 182 | CN(C)CCNC1=CC(=O)c2oc(-c3cc(F)ccc3F)nc2C1=O [Example 15, 2-(2,5-difluorophenyl)-5-{[2-(dimethylamino)ethyl]amino}-1,3-benzoxazole-4,7-dione]
≥ 5.00 | ≥ 5.00 | 153 to 154 | CN(C)CCNC1=CC(=O)c2oc(-c3ccccc3Br)nc2C1=O [Example 16, 2-(2-bromophenyl)-5-{[2-(dimethylamino)ethyl]amino}-1,3-benzoxazole4,7-dione]
≥ 5.00 | ≥ 5.00 | 181 to 182 | CN(C)CCNC1=CC(=O)c2oc(-c3ccc(F)cc3)nc2C1=O [Example 18, 5-{[2-(dimethylamino)ethyl]amino}-2-(4-fluorophenyl)-1,3-benzoxazole-4,7-dione]
≥ 5.00 | ≥ 5.00 | 169 to 170 | CCc1ccc(-c2nc3c(o2)C(=O)C=C(NCCN(C)C)C3=O)cc1 [Example 22, 5-{[2-(dimethylamino)ethyl]amino}-2-(4-ethylphenyl)-1,3-benzoxazole4,7-dione]
≥ 5.00 | ≥ 5.00 | 169 to 170 | O=C1C(NCCN2CCCC2)=CC(=O)c2oc(-c3cccc(Br)c3)nc21 [Example 24, 2-(3-bromophenyl)-5-[(2-pyrrolidin-1-ylethyl)amino]1,3-benzoxazole4,7-dione]
≥ 5.00 | ≥ 5.00 |  | COc1cc(-c2nc3c(o2)C(=O)C(NCCN(C)C)=CC3=O)cc(OC)c1OC [Example 40, 6-{[2-(dimethylamino)ethyl]amino}-2-(3,4,5-trimethoxyphenyl)-1,3-benzoxazole-4,7-dione]
≥ 5.00 | ≥ 5.00 |  | COc1cc(-c2nc3c(o2)C(=O)C(NCCN2CCCC2)=CC3=O)cc(OC)c1OC [Example 56, 6-[(2-pyrrolidin-1-ylethyl)amino]-2-(3,4,5-trimethoxyphenyl)-1,3-benzoxazole-4,7-dione]
